Laboratory results reported in patent US20250243196A1, “CITRON KINASE INHIBITORS” (The Cleveland Clinic Foundation, priority 2021, published 2025).

Biological target: Citron kinase (Homo sapiens (Human), UniProt O14578)
Assay: Radiometric citron kinase assay (Eurofins Cat #16-040KP)
Type: biochemical
Details: mean of at least two independent assays; read-out: Radiometric CitK IC50
From the text: In some embodiments, the step of contacting the sample with the compound comprises administering the compound to a subject (e.g., a subject) suffering from cancer. Methods of determining kinase inhibition are well known in the art. For example, kinase activity of an enzyme and the inhibitory capacity of a test compound can be determined by measuring enzyme specific phosphorylation of a substrate. Commercial assays and kits can be employed. For example, kinase inhibition can be determined using a radiometric binding assay, such as using KinaseProfiler™ technology (Eurofins Discovery). This assay method directly detects product formation without the use of modified substrates or coupling enzymes. Test compounds are incubated with kinase, substrate, required cofactors and radioisotope labeled ATP. Following incubation, unreacted radioactive ATP is removed by washing and incorporation of the radiolabeled phosphate into the kinase substrate is assayed to detect phosphoryltransferase activity, which is directly proportional to the amount of phosphorylated substrate. Inhibition of the kinase by a kinase inhibitor prevents phosphorylation of the substrate and thereby limits the incorporation of radiolabeled phosphate. Such an assay is compatible with a microwell assay format, allowing simultaneous determination of IC50 of multiple compounds.
Compounds were screened for biochemical kinase activity (Eurofins Discovery, France) using one of two assays. […] All values in Table 1 are the mean of at least two independent assays.

Sequence of Citron kinase (O14578 whole entry): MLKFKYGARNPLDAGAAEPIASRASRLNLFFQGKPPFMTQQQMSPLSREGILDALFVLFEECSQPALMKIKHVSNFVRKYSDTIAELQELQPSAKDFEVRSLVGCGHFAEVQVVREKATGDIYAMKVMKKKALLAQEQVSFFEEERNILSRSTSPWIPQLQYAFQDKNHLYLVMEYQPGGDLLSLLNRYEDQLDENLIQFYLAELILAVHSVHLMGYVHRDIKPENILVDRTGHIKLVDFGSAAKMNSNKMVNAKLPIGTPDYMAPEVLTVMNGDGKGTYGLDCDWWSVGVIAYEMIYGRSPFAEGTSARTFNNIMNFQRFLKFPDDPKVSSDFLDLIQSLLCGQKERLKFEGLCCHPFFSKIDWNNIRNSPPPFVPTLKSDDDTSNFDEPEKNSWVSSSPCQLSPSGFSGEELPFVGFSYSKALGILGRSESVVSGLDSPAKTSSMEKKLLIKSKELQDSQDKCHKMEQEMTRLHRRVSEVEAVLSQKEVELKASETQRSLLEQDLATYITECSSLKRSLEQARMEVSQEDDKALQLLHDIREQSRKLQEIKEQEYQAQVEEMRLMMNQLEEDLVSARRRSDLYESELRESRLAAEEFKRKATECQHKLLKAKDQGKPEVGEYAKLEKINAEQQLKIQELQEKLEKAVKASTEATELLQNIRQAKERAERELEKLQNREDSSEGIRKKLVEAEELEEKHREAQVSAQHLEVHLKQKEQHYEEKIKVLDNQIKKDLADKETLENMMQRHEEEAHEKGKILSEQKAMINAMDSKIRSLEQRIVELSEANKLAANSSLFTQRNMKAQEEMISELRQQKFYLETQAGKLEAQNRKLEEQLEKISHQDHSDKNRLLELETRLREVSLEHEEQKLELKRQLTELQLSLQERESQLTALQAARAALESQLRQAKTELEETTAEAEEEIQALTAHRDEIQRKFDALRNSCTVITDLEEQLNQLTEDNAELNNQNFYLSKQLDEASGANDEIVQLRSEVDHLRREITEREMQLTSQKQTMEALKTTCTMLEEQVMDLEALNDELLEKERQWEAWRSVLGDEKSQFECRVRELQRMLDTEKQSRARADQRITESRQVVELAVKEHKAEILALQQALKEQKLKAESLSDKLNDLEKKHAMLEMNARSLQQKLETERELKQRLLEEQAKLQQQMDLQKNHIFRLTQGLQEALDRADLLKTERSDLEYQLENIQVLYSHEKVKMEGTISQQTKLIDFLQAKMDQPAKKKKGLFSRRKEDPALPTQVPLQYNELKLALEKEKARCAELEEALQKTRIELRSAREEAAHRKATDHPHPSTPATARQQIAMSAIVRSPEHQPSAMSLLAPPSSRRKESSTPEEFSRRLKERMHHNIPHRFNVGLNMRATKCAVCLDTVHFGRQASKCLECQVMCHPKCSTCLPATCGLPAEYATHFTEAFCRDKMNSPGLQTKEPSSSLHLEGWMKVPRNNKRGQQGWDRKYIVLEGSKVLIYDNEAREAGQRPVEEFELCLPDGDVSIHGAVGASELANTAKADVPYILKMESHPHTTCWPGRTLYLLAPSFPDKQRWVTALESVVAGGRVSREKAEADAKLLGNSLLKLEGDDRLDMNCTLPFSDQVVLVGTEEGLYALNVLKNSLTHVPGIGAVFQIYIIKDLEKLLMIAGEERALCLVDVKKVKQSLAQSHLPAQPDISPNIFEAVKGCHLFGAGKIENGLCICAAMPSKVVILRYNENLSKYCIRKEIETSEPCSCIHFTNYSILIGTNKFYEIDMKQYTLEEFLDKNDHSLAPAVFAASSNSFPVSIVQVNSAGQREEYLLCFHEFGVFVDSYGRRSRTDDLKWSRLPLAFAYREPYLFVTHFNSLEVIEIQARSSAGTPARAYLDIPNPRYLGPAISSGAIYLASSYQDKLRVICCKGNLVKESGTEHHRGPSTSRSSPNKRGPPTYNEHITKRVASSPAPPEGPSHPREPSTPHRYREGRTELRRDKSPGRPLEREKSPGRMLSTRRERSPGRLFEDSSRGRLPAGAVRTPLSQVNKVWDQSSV

Structure (SMILES)	IC50 [µM]
CCc1cc(NC(=O)[C@H](N)C(C)(C)C)ccc1-c1ccnc2[nH]c(C)cc12 [Compound F-93, (2R)-2-Amino-N-[3-ethyl-4-(2-methyl-1H-pyrrolo[2,3-b]pyridin-4-yl)phenyl]-3,3-dimethyl-butanamide]	0.121
CN[C@H](CC(C)C)C(=O)Nc1ccc(-c2ccnc3[nH]c(C)cc23)cc1 [Compound F-94, (2R)-4-Methyl-2-(methylamino)-N-[4-(2-methyl-1H-pyrrolo[2,3-b]pyridin-4-yl)phenyl]pentanamide]	0.0437
Cc1cc2c(-c3ccc(NC(=O)[C@H](N)CC(C)C)nc3C)ccnc2[nH]1 [Compound F-95, (2R)-2-Amino-4-methyl-N-[6-methyl-5-(2-methyl-1H-pyrrolo[2,3-b]pyridin-4-yl)-2-pyridyl]pentanamide]	0.24
Cc1cc2c(-c3ncc(NC(=O)[C@H](N)CC(C)(C)C)cc3C)ccnc2[nH]1 [Compound F-96, (2R)-2-Amino-4,4-dimethyl-N-[5-methyl-6-(2-methyl-1H-pyrrolo[2,3-b]pyridin-4-yl)-3-pyridyl]pentanamide]	0.0969
Cc1cc2c(-c3ccc(NC(=O)[C@H](N)CC(C)(C)C)cc3C(F)F)ccnc2[nH]1 [Compound F-97, (2R)-2-Amino-N-[3-(difluoromethyl)-4-(2-methyl-1H-pyrrolo[2,3-b]pyridin-4-yl)phenyl]-4,4-dimethyl-pentanamide]	0.0293
Cc1cc(NC(=O)[C@H](N)CC(C)C)ccc1-c1ccnc2[nH]c(C(F)(F)F)cc12 [Compound F-98, (2R)-2-Amino-4-methyl-N-[3-methyl-4-[2-(trifluoromethyl)-1H-pyrrolo[2,3-b]pyridin-4-yl]phenyl]pentanamide]	0.0304
Cc1cc(NC(=O)[C@H](N)CC(C)(C)C)ccc1-c1ccnc2[nH]c(C(F)(F)F)cc12 [Compound F-99, (2R)-2-Amino-4,4-dimethyl-N-[3-methyl-4-[2-(trifluoromethyl)-1H-pyrrolo[2,3-b]pyridin-4-yl]phenyl]pentanamide]	0.103
Cc1cc(NC(=O)[C@H](N)C(C)(C)C)ccc1-c1ccnc2[nH]c(C(F)(F)F)cc12 [Compound F-100, (2R)-2-Amino-3,3-dimethyl-N-[3-methyl-4-[2-(trifluoromethyl)-1H-pyrrolo[2,3-b]pyridin-4-yl]phenyl]butanamide]	0.38
Cc1cc(NC(=O)[C@H](N)CC(C)C)ccc1-c1ccnc2[nH]c(C(F)F)cc12 [Compound F-101, (2R)-2-Amino-N-[4-[2-(difluoromethyl)-1H-pyrrolo[2,3-b]pyridin-4-yl]-3-methyl-phenyl]-4-methyl-pentanamide]	0.0181
Cc1cc(NC(=O)[C@H](N)CC(C)(C)C)ccc1-c1ccnc2[nH]c(C(F)F)cc12 [Compound F-102, (2R)-2-Amino-N-[4-[2-(difluoromethyl)-1H-pyrrolo[2,3-b]pyridin-4-yl]-3-methyl-phenyl]-4,4-dimethyl-pentanamide]	0.0117
Cc1cc(NC(=O)[C@H](N)C(C)(C)C)ccc1-c1ccnc2[nH]c(C(F)F)cc12 [Compound F-103, (2R)-2-Amino-N-[4-[2-(difluoromethyl)-1H-pyrrolo[2,3-b]pyridin-4-yl]-3-methyl-phenyl]-3,3-dimethyl-butanamide]	0.0681
CC(C)(C)C[C@@H](N)C(=O)Nc1ccc(-c2ccnc3[nH]c(C(F)(F)F)cc23)nc1 [Compound F-104, (2R)-2-Amino-4,4-dimethyl-N-[6-[2-(trifluoromethyl)-1H-pyrrolo[2,3-b]pyridin-4-yl]-3-pyridyl]pentanamide]	0.418
CC(C)(C)C[C@@H](N)C(=O)Nc1ccc(-c2ccnc3[nH]c(C(F)F)cc23)nc1 [Compound F-105, (2R)-2-Amino-N-[6-[2-(difluoromethyl)-1H-pyrrolo[2,3-b]pyridin-4-yl]-3-pyridyl]-4,4-dimethyl-pentanamide]	0.266
Cc1cnc2[nH]ccc2c1-c1ccc(NC(=O)[C@H](N)C(C)(C)C)cc1 [Compound F-107, (2R)-2-Amino-3,3-dimethyl-N-[4-(5-methyl-1H-pyrrolo[2,3-b]pyridin-4-yl)phenyl]butanamide]	0.371
CC(C)(C)[C@@H](N)C(=O)Nc1nc(-c2ccnc3[nH]ccc23)cs1 [Compound F-111, (2R)-2-Amino-3,3-dimethyl-N-[4-(1H-pyrrolo[2,3-b]pyridin-4-yl)thiazol-2-yl]butanamide]	0.0296
Cc1cc2c(-c3csc(NC(=O)[C@H](N)C(C)(C)C)n3)ccnc2[nH]1 [Compound F-112, (2R)-2-Amino-3,3-dimethyl-N-[4-(2-methyl-1H-pyrrolo[2,3-b]pyridin-4-yl)thiazol-2-yl]butanamide]	0.122
Cc1cc2c(-c3csc(NC(=O)[C@@H](N)C(C)(C)C)n3)ccnc2[nH]1 [Compound F-113, (2S)-2-Amino-3,3-dimethyl-N-[4-(2-methyl-1H-pyrrolo[2,3-b]pyridin-4-yl)thiazol-2-yl]butanamide]	0.111

Structure (SMILES)	IC50 [µM]
Cc1cc2c(-c3csc(NC(=O)[C@H](N)C(C)C)n3)ccnc2[nH]1 [Compound F-114, (2R)-2-Amino-3-methyl-N-[4-(2-methyl-1H-pyrrolo[2,3-b]pyridin-4-yl)thiazol-2-yl]butanamide]	0.244
Cc1cc2c(-c3csc(NC(=O)C(N)C4(C(F)(F)F)CC4)n3)ccnc2[nH]1 (stereo not drawn) [Compound F-115, 2-Amino-N-[4-(2-methyl-1H-pyrrolo[2,3-b]pyridin-4-yl)thiazol-2-yl]-2-[1-(trifluoromethyl)cyclopropyl]acetamide]	0.129
Cc1cc2c(-c3csc(NC(=O)[C@H](N)CC(C)C)n3)ccnc2[nH]1 [Compound F-116, (2R)-2-Amino-4-methyl-N-[4-(2-methyl-1H-pyrrolo[2,3-b]pyridin-4-yl)thiazol-2-yl]pentanamide]	0.368
Cc1cc2c(-c3nc(NC(=O)[C@H](N)C(C)(C)C)sc3C)ccnc2[nH]1 [Compound F-117, (2R)-2-Amino-3,3-dimethyl-N-[5-methyl-4-(2-methyl-1H-pyrrolo[2,3-b]pyridin-4-yl)thiazol-2-yl]butanamide]	3
Cc1cc(NC(=O)[C@H](N)Cc2ccccc2)ccc1-c1ccnc2[nH]ccc12 [Compound F-127, (2R)-2-Amino-N-[3-methyl-4-(1H-pyrrolo[2,3-b]pyridin-4-yl)phenyl]-3-phenyl-propanamide]	0.144
COc1cc(NC(=O)[C@H](N)Cc2ccccc2)ccc1-c1ccnc2[nH]ccc12 [Compound F-128, (2R)-2-Amino-N-[3-methoxy-4-(1H-pyrrolo[2,3-b]pyridin-4-yl)phenyl]-3-phenyl-propanamide]	0.598
N[C@@H](Cc1ccccc1)C(=O)Nc1ccc(-c2ccnc3[nH]ccc23)c(C(F)(F)F)c1 [Compound F-129, (2S)-2-Amino-3-phenyl-N-[4-(1H-pyrrolo[2,3-b]pyridin-4-yl)-3-(trifluoromethyl)phenyl]propanamide]	3
N[C@H](Cc1ccccc1)C(=O)Nc1ccc(-c2ccnc3[nH]ccc23)c(C(F)(F)F)c1 [Compound F-130, (2R)-2-Amino-3-phenyl-N-[4-(1H-pyrrolo[2,3-b]pyridin-4-yl)-3-(trifluoromethyl)phenyl]propanamide]	1.42
COc1cc(-c2ccnc3[nH]ccc23)ccc1NC(=O)[C@H](N)Cc1ccccc1 [Compound F-131, (2R)-2-Amino-N-[2-methoxy-4-(1H-pyrrolo[2,3-b]pyridin-4-yl)phenyl]-3-phenyl-propanamide]	0.301
Cc1cc(-c2ccnc3[nH]ccc23)ccc1NC(=O)[C@H](N)Cc1ccccc1 [Compound F-132, (2R)-2-Amino-N-[2-methyl-4-(1H-pyrrolo[2,3-b]pyridin-4-yl)phenyl]-3-phenyl-propanamide]	0.237
N[C@H](Cc1ccccc1)C(=O)Nc1ccc(-c2ccnc3[nH]ccc23)cc1Cl [Compound F-133, (2R)-2-Amino-N-[2-chloro-4-(1H-pyrrolo[2,3-b]pyridin-4-yl)phenyl]-3-phenyl-propanamide]	0.557
N[C@H](Cc1ccccc1)C(=O)Nc1cccc(-c2ccnc3[nH]ccc23)c1 [Compound F-134, (2R)-2-Amino-3-phenyl-N-[3-(1H-pyrrolo[2,3-b]pyridin-4-yl)phenyl]propanamide]	0.0641
CCc1c[nH]c2nccc(-c3ccc(NC(=O)[C@H](N)Cc4ccccc4)cc3)c12 [Compound F-136, (2R)-2-Amino-N-[4-(3-ethyl-1H-pyrrolo[2,3-b]pyridin-4-yl)phenyl]-3-phenyl-propanamide]	1.26
Cc1c(-c2ccnc3[nH]ccc23)ccc(NC(=O)[C@H](N)C(C)(C)C)c1F [Compound F-137, (2R)-2-Amino-N-[2-fluoro-3-methyl-4-(1H-pyrrolo[2,3-b]pyridin-4-yl)phenyl]-3,3-dimethyl-butanamide]	0.0231
Cc1cc(NC(=O)[C@H](N)C(C)(C)C)cc(C)c1-c1ccnc2[nH]ccc12 [Compound F-138, (2R)-2-Amino-N-[3,5-dimethyl-4-(1H-pyrrolo[2,3-b]pyridin-4-yl)phenyl]-3,3-dimethyl-butanamide]	3
Cc1cc(NC(=O)[C@H](N)C(C)(C)O)ccc1-c1ccnc2[nH]c(C(F)F)cc12 [Compound F-139, (2R)-2-Amino-N-[4-[2-(difluoromethyl)-1H-pyrrolo[2,3-b]pyridin-4-yl]-3-methyl-phenyl]-3-hydroxy-3-methyl-butanamide]	0.151
